Source: ChEMBL document CHEMBL6153118, “Structure Optimization of Natural Product Catalpol to Obtain Novel and Potent Analogs against Heart Failure” (J Med Chem, 2025)
The source made the active and inactive calls. No cut-off for these calls is given here.

Key:
H9c2 [1] = experiment: Cytoprotective activity against OGD-induced myocardial ischemic injury in rat H9c2 cells assessed as cell viability at 5 uM preincubated for 12 hrs followed by exposure to OGD condition for 3 hrs by CCK8 assay (reference value: 49.23 to 50.05 %); assay type: functional; details: time 15 hrs, read-out: Activity
H9c2 [2] = experiment: Cytoprotective activity against OGD-induced myocardial ischemic injury in rat H9c2 cells assessed as cell viability at 50 uM preincubated for 12 hrs followed by exposure to OGD condition for 3 hrs by CCK8 assay (reference value: 49.23 to 50.05 %); assay type: functional; details: time 15 hrs, read-out: Activity
[3] = Metabolic stability in human liver microsomes assessed as intrinsic clearance measured for 5 to 60 mins in presence of NADPH by LC-MS/MS analysis; assay type: ADME, Microsome; details: time 5-60 min, read-out: CLH
[4] = Metabolic stability in mouse liver microsomes assessed as half life measured for 5 to 60 mins in presence of NADPH by LC-MS/MS analysis; assay type: ADME, Microsome; details: time 5-60 min
[5] = Metabolic stability in mouse liver microsomes assessed as intrinsic clearance measured for 5 to 60 mins in presence of NADPH by LC-MS/MS analysis; assay type: ADME, Microsome; details: time 5-60 min, read-out: CLH
H9c2 [6] = experiment: Cytoprotective activity against OGD-induced myocardial ischemic injury in rat H9c2 cells assessed as cell viability at 100 uM preincubated for 12 hrs followed by exposure to OGD condition for 3 hrs by CCK8 assay (reference value: 49.23 to 50.05 %); assay type: functional; details: time 15 hrs, read-out: Activity
H9c2 [7] = experiment: Cytoprotective activity against OGD-induced myocardial ischemic injury in rat H9c2 cells assessed as decrease in cell death at 5 to 50 uM preincubated for 12 hrs followed by exposure to OGD condition for 3 hrs by crystal violet staining based analysis; assay type: functional; details: dose 5-50 µM, time 15.0 hrs
Cardiac muscle cell [8] = experiment: Cytoprotective activity against OGD-induced myocardial ischemic injury in neonatal rat primary cardiomyocytes assessed as decrease in cellular damage at 1 uM preincubated for 12 hrs followed by exposure to OGD condition for 3 hrs; assay type: functional, cell-based; details: time 15.0 hrs
Mus musculus [9] = experiment: Cardioprotective activity in ISO-induced heart failure C57BL/6J mouse assessed as ejection fraction in heart at 20 mg/kg/day, po for 14 days by echocardiography (reference value: 49.55 +/- 2.41 %); assay type: functional; details: time 14 day
H9c2 [10] = experiment: Cytoprotective activity against OGD-induced myocardial ischemic injury in rat H9c2 cells assessed as decrease in LDH level at 5 to 50 uM preincubated for 12 hrs followed by exposure to OGD condition for 3 hrs by UV absorption analysis; assay type: functional, cell-based; details: dose 5-50 µM, time 15.0 hrs
H9c2 [11] = experiment: Cytoprotective activity against OGD-induced myocardial ischemic injury in rat H9c2 cells assessed as decrease in ROS level at 5 to 50 uM preincubated for 12 hrs followed by exposure to OGD condition for 3 hrs by DCFH-DA probe based analysis; assay type: functional, cell-based; details: dose 5-50 µM, time 15.0 hrs
Mus musculus [12] = experiment: Cardioprotective activity in ISO-induced heart failure C57BL/6J mouse assessed as fractional shortening in heart at 20 mg/kg/day, po for 14 days by echocardiography (reference value: 24.49 +/- 1.49 %); assay type: functional; details: time 14 day
Mus musculus [13] = experiment: Cardioprotective activity in ISO-induced heart failure C57BL/6J mouse assessed as ejection fraction in heart at 5 mg/kg/day, po for 14 days by echocardiography (reference value: 49.55 +/- 2.41 %); assay type: functional; details: time 14 day
Mus musculus [14] = experiment: Cardioprotective activity in ISO-induced heart failure C57BL/6J mouse assessed as fractional shortening in heart at 5 mg/kg/day, po for 14 days by echocardiography (reference value: 24.49 +/- 1.49 %); assay type: functional; details: time 14 day
Mus musculus [15] = experiment: Improvement in motor ability in ISO-induced heart failure C57BL/6J mouse assessed as increase in grip strength at 5 to 20 mg/kg/day, po for 14 days; assay type: functional, organism-based; details: dose 5-20 mg/kg/day, time 14.0 day
Mus musculus [16] = experiment: Improvement in motor ability in ISO-induced heart failure C57BL/6J mouse assessed as increase in time of remote motion with rotarod at 5 to 20 mg/kg/day, po for 14 days; assay type: functional, organism-based; details: dose 5-20 mg/kg/day, time 14.0 day
Mus musculus [17] = experiment: Inhibition of cardiomyocyte hypertrophy in ISO-induced heart failure C57BL/6J mouse at 5 to 20 mg/kg/day, po for 14 days; assay type: functional, organism-based; details: dose 5-20 mg/kg/day, time 14.0 day
Mus musculus [18] = experiment: Inhibition of cardiac fibrosis in ISO-induced heart failure C57BL/6J mouse at 5 to 20 mg/kg/day, po for 14 days; assay type: functional, organism-based; details: dose 5-20 mg/kg/day, time 14.0 day
Cardiac muscle cell [19] = experiment: Cytoprotective activity against OGD-induced myocardial ischemic injury in neonatal rat primary cardiomyocytes assessed as decrease in cellular damage preincubated for 12 hrs followed by exposure to OGD condition for 3 hrs; assay type: functional, cell-based; details: time 15.0 hrs
Mus musculus [20] = experiment: Cardioprotective activity in ISO-induced heart failure C57BL/6J mouse assessed as […] in ejection fraction in heart at 20 mg/kg/day, po for 14 days by echocardiography; assay type: functional, organism-based; details: time 14.0 day
Mus musculus [21] = experiment: Cardioprotective activity in ISO-induced heart failure C57BL/6J mouse assessed as […] in fractional shortening in heart at 20 mg/kg/day, po for 14 days by echocardiography; assay type: functional, organism-based; details: time 14.0 day
Mus musculus [22] = experiment: Inhibition of cardiomyocyte hypertrophy in ISO-induced heart failure C57BL/6J mouse at 20 mg/kg/day, po for 14 days; assay type: functional, organism-based; details: time 14.0 day

SMILES	viability at 5 µM (H9c2 [1])	viability at 50 µM (H9c2 [2])	also measured
OC[C@H]1O[C@@H](O[C@@H]2OC=C[C@H]3[C@H](O)[C@@H]4O[C@]4(COc4ccc(F)cc4)[C@@H]23)[C@H](O)[C@@H](O)[C@@H]1O	61.7%	64.6%	
O=C(NC[C@]12O[C@H]1[C@@H](O)[C@@H]1C=CO[C@@H](O[C@@H]3O[C@H](CO)[C@@H](O)[C@H](O)[C@H]3O)[C@@H]12)c1ccc2occc2c1	59.1%	58%	
O=C(NC[C@]12O[C@H]1[C@@H](O)[C@@H]1C=CO[C@@H](O[C@@H]3O[C@H](CO)[C@@H](O)[C@H](O)[C@H]3O)[C@@H]12)c1cncnc1	58%	57.5%	
OC[C@H]1O[C@@H](O[C@@H]2OC=C[C@H]3[C@H](O)[C@@H]4O[C@]4(COc4ccc5ccoc5c4)[C@@H]23)[C@H](O)[C@@H](O)[C@@H]1O	56.7%	57%	
O=C(O)Cc1ccccc1Nc1c(Cl)cccc1Cl [DICLOFENAC]			CLint scaled [3]: 202 mL/min/kg; half-life [4]: 1.1 h; CLint scaled [5]: 82.9 mL/min/kg
O=C(NC[C@]12O[C@H]1[C@@H](O)[C@@H]1C=CO[C@@H](O[C@@H]3O[C@H](CO)[C@@H](O)[C@H](O)[C@H]3O)[C@@H]12)c1cccnc1	58.2%	59.6%	
OC[C@H]1O[C@@H](O[C@@H]2OC=C[C@H]3[C@H](O)[C@@H]4O[C@]4(COc4ccc(C5CCCC5)cc4)[C@@H]23)[C@H](O)[C@@H](O)[C@@H]1O	64.5%	60.8%	
OC[C@H]1O[C@@H](O[C@@H]2OC=C[C@H]3[C@H](O)[C@@H]4O[C@]4(COc4ccc(C5CCCCC5)cc4)[C@@H]23)[C@H](O)[C@@H](O)[C@@H]1O	60.9%	56.6%	
COc1ccc(OC[C@]23O[C@H]2[C@@H](O)[C@@H]2C=CO[C@@H](O[C@@H]4O[C@H](CO)[C@@H](O)[C@H](O)[C@H]4O)[C@@H]23)cc1	62.5%	57.5%	
OC[C@H]1O[C@@H](O[C@@H]2OC=C[C@H]3[C@H](O)[C@@H]4O[C@]4(COc4cccc5c4CCCC5)[C@@H]23)[C@H](O)[C@@H](O)[C@@H]1O	54.4%	55.5%	
O=C(NC[C@]12O[C@H]1[C@@H](O)[C@@H]1C=CO[C@@H](O[C@@H]3O[C@H](CO)[C@@H](O)[C@H](O)[C@H]3O)[C@@H]12)C1CCCCC1	60%	61.3%	
O=C(/C=C/c1ccccc1)NC[C@]12O[C@H]1[C@@H](O)[C@@H]1C=CO[C@@H](O[C@@H]3O[C@H](CO)[C@@H](O)[C@H](O)[C@H]3O)[C@@H]12	57.9%	61.5%	
OC[C@H]1O[C@@H](O[C@@H]2OC=C[C@H]3[C@H](O)[C@@H]4O[C@]4(COc4cccc5ccccc45)[C@@H]23)[C@H](O)[C@@H](O)[C@@H]1O	55.5%	58.8%	
OC[C@H]1O[C@@H](O[C@@H]2OC=C[C@H]3[C@H](O)[C@@H]4O[C@]4(COc4ccc5c(c4)OCO5)[C@@H]23)[C@H](O)[C@@H](O)[C@@H]1O	59.6%	60.7%	
COc1ccc(CC(=O)NC[C@]23O[C@H]2[C@@H](O)[C@@H]2C=CO[C@@H](O[C@@H]4O[C@H](CO)[C@@H](O)[C@H](O)[C@H]4O)[C@@H]23)cc1OC	60.9%	59.4%	
O=C(NCCO[N+](=O)[O-])c1cccnc1 [NICORANDIL]			viability at 100 µM (H9c2 [6]): 58.6%
O=C(NC[C@]12O[C@H]1[C@@H](O)[C@@H]1C=CO[C@@H](O[C@@H]3O[C@H](CO)[C@@H](O)[C@H](O)[C@H]3O)[C@@H]12)c1ccccc1	63.6%	70%	Activity (H9c2 [7]): Active; Exhibited Superior Protective Efficacy Than Catal-Pol; Activity (Cardiac muscle cell [8]): Active
CC(C)(C)c1ccc(C(=O)NC[C@]23O[C@H]2[C@@H](O)[C@@H]2C=CO[C@@H](O[C@@H]4O[C@H](CO)[C@@H](O)[C@H](O)[C@H]4O)[C@@H]23)cc1	60.7%	70.9%	Activity (Mus musculus [9]): 53.73%; Activity (H9c2 [7]): Active; Exhibited Superior Protective Efficacy Than Catal-Pol; Activity (Cardiac muscle cell [8]): Active; Activity (H9c2 [10]): Active; Activity (H9c2 [11]): Active; Activity (Mus musculus [12]): 27.5%; Activity (Mus musculus [13]): 55.41%; Activity (Mus musculus [14]): 28.23%; Activity (Mus musculus [15]): Active; Activity (Mus musculus [16]): Active; inhibition (Mus musculus [17]): inactive; inhibition (Mus musculus [18]): Active
OC[C@H]1O[C@@H](O[C@@H]2OC=C[C@H]3[C@H](O)[C@@H]4O[C@]4(CO)[C@@H]23)[C@H](O)[C@@H](O)[C@@H]1O [CATALPOL]	50.6%	50.7%	Activity (Cardiac muscle cell [19]): Active; Activity (H9c2 [10]): Active; Activity (H9c2 [11]): Active; Activity (Mus musculus [20]): Active; Activity (Mus musculus [21]): Active; inhibition (Mus musculus [22]): Active
OC[C@H]1O[C@@H](O[C@@H]2OC=C[C@H]3[C@H](O)[C@@H]4O[C@]4(COc4ccc(-c5ccccc5)cc4)[C@@H]23)[C@H](O)[C@@H](O)[C@@H]1O	60%	53.2%	
O=C(NC[C@]12O[C@H]1[C@@H](O)[C@@H]1C=CO[C@@H](O[C@@H]3O[C@H](CO)[C@@H](O)[C@H](O)[C@H]3O)[C@@H]12)c1ccco1	58.8%	55.6%	
COc1ccc(C(=O)NC[C@]23O[C@H]2[C@@H](O)[C@@H]2C=CO[C@@H](O[C@@H]4O[C@H](CO)[C@@H](O)[C@H](O)[C@H]4O)[C@@H]23)cc1OC	62.1%	57.8%	
OC[C@H]1O[C@@H](O[C@@H]2OC=C[C@H]3[C@H](O)[C@@H]4O[C@]4(COc4cc(C(F)(F)F)cc(C(F)(F)F)c4)[C@@H]23)[C@H](O)[C@@H](O)[C@@H]1O	56.1%	50.1%	
COc1ccc(/C=C/C(=O)NC[C@]23O[C@H]2[C@@H](O)[C@@H]2C=CO[C@@H](O[C@@H]4O[C@H](CO)[C@@H](O)[C@H](O)[C@H]4O)[C@@H]23)cc1OC	56.6%	56.7%	
OC[C@H]1O[C@@H](O[C@@H]2OC=C[C@H]3[C@H](O)[C@@H]4O[C@]4(COc4ccccc4)[C@@H]23)[C@H](O)[C@@H](O)[C@@H]1O	59.1%	60.5%	
COc1cc(OC[C@]23O[C@H]2[C@@H](O)[C@@H]2C=CO[C@@H](O[C@@H]4O[C@H](CO)[C@@H](O)[C@H](O)[C@H]4O)[C@@H]23)cc(OC)c1OC	63.9%	55.1%	
O=C(NC[C@]12O[C@H]1[C@@H](O)[C@@H]1C=CO[C@@H](O[C@@H]3O[C@H](CO)[C@@H](O)[C@H](O)[C@H]3O)[C@@H]12)c1ccncc1	54.2%	57.5%	
O=C(NC[C@]12O[C@H]1[C@@H](O)[C@@H]1C=CO[C@@H](O[C@@H]3O[C@H](CO)[C@@H](O)[C@H](O)[C@H]3O)[C@@H]12)c1cccs1	54.1%	60.4%	
